Experiments:
[1] = Plasma nicotine metabolite cotinine concentration in MMT patients subgrouped by age; type: in vivo, human
[2] = Self-reported skin irritation after taking methadone in MMT patients; conditions: 15 of 344 MMT patients
Description: The inclusion criteria included subjects aged 18 or above, having undergone MMT for at least three months with regular attendance for the past seven days, and a methadone dosage adjustment of not more than 10 mg in the past seven days. Exclusion criteria included co-morbidity with physical and mental disorders requiring immediate treatment and pregnancy.

Structure (SMILES)	Plasma cotinine concentration ([1]; MMT subjects age <45, n=275, mean ± SD)	Plasma cotinine concentration ([1]; MMT subjects age ≥45, n=69, mean ± SD)	Patients self-reporting skin irritation after taking methadone [2]
CN1C(=O)CC[C@H]1c1cccnc1 [Cotinine]	384.20 ± 184.90 ng/mL	439.65 ± 203.44 ng/mL	
CCC(=O)C(CC(C)N(C)C)(c1ccccc1)c1ccccc1 (stereo not drawn) [R,S-methadone]			around 4.4%
